The values below come from patent publication US9187472B2 (AbbVie Inc., priority 2012, dated 2015).

In the assay the test system is PC3 cells. Nature of the assay: NAMPT Cell Proliferation Assay. Format: cell-based. Particulars: Homo sapiens, PC-3, 120 h, 5 days incubation, cell viability by Cell Titer Glo. In outline:
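Seed PC3 at 500 cells/well (RPMI, 10% HI-FBS), attach overnight; add compound, 10-fold series 10 μM → 1×10^−5 μM; incubate 5 d, 37° C/5% CO2; luminescent viability readout; fit % inhibition sigmoidally for IC50.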
The IC50 is the concentration needed to halve the response being measured. Low readings indicate greater potency, high ones weaker potency. As for `CCN(CC)CCC(=O)N1CCC(c2ccc(C(=O)NCc3ccn4ccnc4c3)cc2)CC1` [Example 928, 4-[1-(N,N-diethyl-beta-alanyl)piperidin-4-yl]-N-(imidazo[1,2-a]pyridin-7-ylmethyl)benzamide], half-maximal inhibition (IC50) required 106 nM.

As for `O=C(NCc1ccn2ccnc2c1)c1ccc(C2CCN(C(=O)c3coc4ccccc34)CC2)cc1` [Example 1098, 4-[1-(1-benzofuran-3-ylcarbonyl)piperidin-4-yl]-N-(imidazo[1,2-a]pyridin-7-ylmethyl)benzamide], half-maximal inhibition (IC50) required 9.55 nM.

Compound `CC(C)C(=O)N1CCC(c2ccc(NC(=O)NCc3ccn4ccnc4c3)c(F)c2)CC1` [Example 1078, 1-{2-fluoro-4-[1-(2-methylpropanoyl)piperidin-4-yl]phenyl}-3-(imidazo[1,2-a]pyridin-7-ylmethyl)urea] came in with an IC50 of 7.61 nM.

Take `COc1ccccc1C(=O)Nc1ccc(C(=O)NCc2ccn3ccnc3c2)cc1` [Example 880, N-{4-[(imidazo[1,2-a]pyridin-7-ylmethyl)carbamoyl]phenyl}-2-methoxybenzamide]: half-maximal inhibition (IC50) was put at 750 nM.

In turn, `CC(C)c1nc(C(=O)N2CCC(c3ccc(C(=O)NCc4ccn5ccnc5c4)cc3)CC2)cs1` [Example 1108, N-(imidazo[1,2-a]pyridin-7-ylmethyl)-4-(1-{[2-(propan-2-yl)-1,3-thiazol-4-yl]carbonyl}piperidin-4-yl)benzamide] registered an IC50 of 20.1 nM.

The compound `O=C(NCc1ccn2ccnc2c1)Nc1ccc(C2CCN(C(=O)c3cnc4ccccc4n3)CC2)cc1` [Example 1038, 1-(imidazo[1,2-a]pyridin-7-ylmethyl)-3-{4-[1-(quinoxalin-2-ylcarbonyl)piperidin-4-yl]phenyl}urea] came in with an IC50 of 7.84 nM.

In the case of `O=C(NCc1ccn2ccnc2c1)Nc1ccc(C2CCN(C(=O)c3ccc4scnc4c3)CC2)cc1` [Example 1122, 1-{4-[1-(1,3-benzothiazol-5-ylcarbonyl)piperidin-4-yl]phenyl}-3-(imidazo[1,2-a]pyridin-7-ylmethyl)urea], the midpoint of inhibition, the IC50, lay at 9.96 nM.

Take `N#CC1(C(=O)N2CCC(c3ccc(C(=O)NCc4ccn5ccnc5c4)cc3)CC2)CCCC1` [Example 982, 4-{1-[(1-cyanocyclopentyl)carbonyl]piperidin-4-yl}-N-(imidazo[1,2-a]pyridin-7-ylmethyl)benzamide]: inhibition was half-maximal at 100 nM (IC50).

Turning to `CC(C)CC(=O)N1CCC(c2ccc(C(=O)NCc3cn4ccnc4cn3)s2)CC1` [Example 838, N-(imidazo[1,2-a]pyrazin-6-ylmethyl)-5-[1-(3-methylbutanoyl)piperidin-4-yl]thiophene-2-carboxamide], the IC50 worked out at 2.7 nM.

Take `O=C(NCc1ccn2ccnc2c1)c1ccc(C2CCN(C(=O)c3ccc4c(c3)CCCO4)CC2)cc1` [Example 970, 4-[1-(3,4-dihydro-2H-chromen-6-ylcarbonyl)piperidin-4-yl]-N-(imidazo[1,2-a]pyridin-7-ylmethyl)benzamide]: the IC50 turned out to be 10.9 nM.

Regarding `CC1(C(=O)N2CCC(c3ccc(C(=O)NCc4ccc5ncnn5c4)s3)CC2)CC1` [Example 845, 5-{1-[(1-methylcyclopropyl)carbonyl]piperidin-4-yl}-N-([1,2,4]triazolo[1,5-a]pyridin-6-ylmethyl)thiophene-2-carboxamide], the concentration for half-maximal inhibition (IC50) came to 3.89 nM.

In turn, `CC(C)C(=O)N1CCC(c2ccc(NC(=O)NCc3ccn4c(Cl)cnc4c3)cc2)CC1` [Example 904, 1-[(3-chloroimidazo[1,2-a]pyridin-7-yl)methyl]-3-{4-[1-(2-methylpropanoyl)piperidin-4-yl]phenyl}urea] had a half-inhibitory concentration (IC50) of 282 nM.

Compound `COc1ccsc1C(=O)N1CCC(c2ccc(C(=O)NCc3ccn4ccnc4c3)cc2)CC1` [Example 1063, N-(imidazo[1,2-a]pyridin-7-ylmethyl)-4-{1-[(3-methoxythiophen-2-yl)carbonyl]piperidin-4-yl}benzamide] gave an IC50 of 1.89 nM.

The compound `O=C(NCc1ccc2ncnn2c1)c1ccc(C2CCN(C(=O)c3cc(F)cc(F)c3)CC2)s1` [Example 836, 5-[1-(3,5-difluorobenzoyl)piperidin-4-yl]-N-([1,2,4]triazolo[1,5-a]pyridin-6-ylmethyl)thiophene-2-carboxamide] came in with a half-inhibitory concentration (IC50) of 68.3 nM.

`Cc1cc(C(=O)N2CCC(c3ccc(NC(=O)NCc4ccn5ccnc5c4)cc3)CC2)cc(Cl)n1` [Example 951, 1-(4-{1-[(2-chloro-6-methylpyridin-4-yl)carbonyl]piperidin-4-yl}phenyl)-3-(imidazo[1,2-a]pyridin-7-ylmethyl)urea] came in with a 50% inhibitory concentration (IC50) of 63.9 nM.

On to `N#Cc1cc(C(=O)N2CCC(c3ccc(NC(=O)NCc4ccn5ccnc5c4)cc3)CC2)ccc1F` [Example 1052, 1-{4-[1-(3-cyano-4-fluorobenzoyl)piperidin-4-yl]phenyl}-3-(imidazo[1,2-a]pyridin-7-ylmethyl)urea], for which inhibition was half-maximal at 27.1 nM (IC50).

The compound `O=C(NCc1ccn2ccnc2c1)c1ccc(C2CCN(C(=O)c3cc(Cl)ncc3F)CC2)cc1` [Example 1061, 4-{1-[(2-chloro-5-fluoropyridin-4-yl)carbonyl]piperidin-4-yl}-N-(imidazo[1,2-a]pyridin-7-ylmethyl)benzamide] showed a 50% inhibitory concentration (IC50) of 7.84 nM.

As for `CC(C)CC(=O)N1CCC(c2ccc(C(=O)NCc3ccc4ncnn4c3)s2)CC1` [Example 843, 5-[1-(3-methylbutanoyl)piperidin-4-yl]-N-([1,2,4]triazolo[1,5-a]pyridin-6-ylmethyl)thiophene-2-carboxamide], the IC50 stood at 17.2 nM.

`CCn1cc(C(=O)N2CCC(c3ccc(C(=O)NCc4ccn5ccnc5c4)cc3)CC2)c(C(C)C)n1` [Example 1096, 4-(1-{[1-ethyl-3-(propan-2-yl)-1H-pyrazol-4-yl]carbonyl}piperidin-4-yl)-N-(imidazo[1,2-a]pyridin-7-ylmethyl)benzamide]: the half-maximal inhibitory concentration (IC50) turned out to be 2.07 nM.

For `Cc1ccc(F)c(C(=O)N2CCC(c3ccc(C(=O)NCc4ccn5ccnc5c4)cc3)CC2)n1` [Example 963, 4-{1-[(3-fluoro-6-methylpyridin-2-yl)carbonyl]piperidin-4-yl}-N-(imidazo[1,2-a]pyridin-7-ylmethyl)benzamide], it took 19.5 nM to reach half-maximal inhibition (IC50).

In turn, `O=C(NCc1ccn2ccnc2c1)c1ccc(NC(=O)c2cc(F)ccc2F)cc1` [Example 870, 2,5-difluoro-N-{4-[(imidazo[1,2-a]pyridin-7-ylmethyl)carbamoyl]phenyl}benzamide] gave an IC50 of 994 nM.

Consider `O=C(CC1CCCC1)Nc1ccc(C(=O)NCc2cn3ccnc3cn2)c(F)c1` [Example 908, 4-[(cyclopentylacetyl)amino]-2-fluoro-N-(imidazo[1,2-a]pyrazin-6-ylmethyl)benzamide], for which the IC50 came out at 11.2 nM.

Regarding `O=C(NCc1ccc2ncnn2c1)c1ccc(C2CCN(C(=O)CCC(F)(F)F)CC2)s1` [Example 847, N-([1,2,4]triazolo[1,5-a]pyridin-6-ylmethyl)-5-[1-(4,4,4-trifluorobutanoyl)piperidin-4-yl]thiophene-2-carboxamide], 93.6 nM corresponded to half-maximal inhibition (IC50).

For `O=C(Cc1ccn2ccnc2c1)Nc1ccc(C2CCN(C(=O)c3ccccc3F)CC2)cc1` [Example 905, N-{4-[1-(2-fluorobenzoyl)piperidin-4-yl]phenyl}-2-(imidazo[1,2-a]pyridin-7-yl)acetamide], the half-maximal inhibitory concentration (IC50) was 0.994 nM.

For the compound `CC(C(=O)N1CCC(c2ccc(C(=O)NCc3ccn4ccnc4c3)cc2)CC1)c1ccccc1` (stereo not drawn) [Example 926, N-(imidazo[1,2-a]pyridin-7-ylmethyl)-4-[1-(2-phenylpropanoyl)piperidin-4-yl]benzamide], 9.69 nM corresponded to half-maximal inhibition (IC50).

As to `COc1csc(C(=O)N2CCC(c3ccc(C(=O)NCc4ccn5ccnc5c4)cc3)CC2)c1` [Example 1092, N-(imidazo[1,2-a]pyridin-7-ylmethyl)-4-{1-[(4-methoxythiophen-2-yl)carbonyl]piperidin-4-yl}benzamide], it took 17.7 nM to reach half-maximal inhibition (IC50).

As for `CCC1CCCCN1C(=O)C(=O)N1CCC(c2ccc(C(=O)NCc3ccn4ccnc4c3)cc2)CC1` (stereo not drawn) [Example 1117, 4-{1-[(2-ethylpiperidin-1-yl)(oxo)acetyl]piperidin-4-yl}-N-(imidazo[1,2-a]pyridin-7-ylmethyl)benzamide], the midpoint of inhibition, the IC50, lay at 65.7 nM.

Regarding `O=C(NCc1ccn2ccnc2c1)c1ccc(C2CCN(C(=O)c3ccnc(Cl)c3F)CC2)cc1` [Example 964, 4-{1-[(2-chloro-3-fluoropyridin-4-yl)carbonyl]piperidin-4-yl}-N-(imidazo[1,2-a]pyridin-7-ylmethyl)benzamide], inhibition was half-maximal at 6.22 nM (IC50).

In turn, `N#Cc1cc(C(=O)N2CCC(c3ccc(C(=O)NCc4ccn5ccnc5c4)cc3)CC2)ccc1F` [Example 999, 4-[1-(3-cyano-4-fluorobenzoyl)piperidin-4-yl]-N-(imidazo[1,2-a]pyridin-7-ylmethyl)benzamide] registered an IC50 of 684 nM.

With `Cc1cccn2cc(C(=O)N3CCC(c4ccc(C(=O)NCc5ccn6ccnc6c5)cc4)CC3)nc12` [Example 992, N-(imidazo[1,2-a]pyridin-7-ylmethyl)-4-{1-[(8-methylimidazo[1,2-a]pyridin-2-yl)carbonyl]piperidin-4-yl}benzamide], the IC50 was 584 nM.

`O=C(NCc1ccn2ccnc2c1)Nc1ccc(C2CCN(C(=O)c3cccc4c3OCCO4)CC2)cc1` [Example 1026, 1-{4-[1-(2,3-dihydro-1,4-benzodioxin-5-ylcarbonyl)piperidin-4-yl]phenyl}-3-(imidazo[1,2-a]pyridin-7-ylmethyl)urea] yielded a concentration for half-maximal inhibition (IC50) of 1.56 nM.

`O=C(NCc1ccn2ccnc2c1)Nc1ccc(C2CCN(C(=O)c3cc(C4CC4)no3)CC2)cc1` [Example 1034, 1-(4-{1-[(3-cyclopropyl-1,2-oxazol-5-yl)carbonyl]piperidin-4-yl}phenyl)-3-(imidazo[1,2-a]pyridin-7-ylmethyl)urea] showed an IC50 of 6.29 nM.

With `CCOc1cc(C(=O)N2CCC(c3ccc(NC(=O)NCc4ccn5ccnc5c4)cc3)CC2)ccn1` [Example 1043, 1-(4-{1-[(2-ethoxypyridin-4-yl)carbonyl]piperidin-4-yl}phenyl)-3-(imidazo[1,2-a]pyridin-7-ylmethyl)urea], the IC50 is 10.4 nM.
